Measurements reported in ChEMBL document CHEMBL3792289, “Design, synthesis and biological evaluation of bisabolangelone oxime derivatives as potassium-competitive acid blockers (P-CABs)” (Bioorg Med Chem Lett, 2016).

Assay: Inhibition of pig gastric H+/K+-ATPase in stomach ion leaky membrane vesicle assessed as reduction in monophosphate production after 30 mins by microplate reader analysis in presence of valinomycin
Format: cell membranes, Sus scrofa

| Compound | IC50 [nM] | pIC50 |
| --- | --- | --- |
| Cc1nc(Nc2ccc(F)cc2)nc(N2CCc3ccccc3C2C)c1C (centres undefined) [REVAPRAZAN] | 950 | – |
| CC(C)C/C=C1\O[C@H]2C[C@@H](C)C/C(=N\OC(=O)Nc3ccccc3)[C@H]2[C@@]1(C)O | – | 6 |
| CC(C)CCC1O[C@H]2C[C@@H](C)C/C(=N\O)[C@H]2[C@@]1(C)O (some centres undefined) | – | 5.3 |

Now from value to compound:

| IC50 [nM] | pIC50 | Compound |
| --- | --- | --- |
| – | 6.36 | C#CCO/N=C1\C[C@H](C)C[C@@H]2O/C(=C\CC(C)C)[C@](C)(O)[C@H]12 |
| – | 6.07 | CCOC(=O)CO/N=C1\C[C@H](C)C[C@@H]2O/C(=C\CC(C)C)[C@](C)(O)[C@H]12 |
| – | 6.25 | CC(C)C/C=C1\O[C@H]2C[C@@H](C)C/C(=N\OCc3ccccc3)[C@H]2[C@@]1(C)O |
| – | 5.94 | CCCCO/N=C1\C[C@H](C)C[C@@H]2O/C(=C\CC(C)C)[C@](C)(O)[C@H]12 |
| – | 5.54 | CC(C)C/C=C1\O[C@H]2C[C@@H](C)C/C(=N\O)[C@H]2[C@@]1(C)O |

Assay: Inhibition of gastric H+/K+-ATPase in Kunming mouse stomach parietal cells
Format: tissue-based

| IC50 [µM] | Compound |
| --- | --- |
| 23.2 | CC(C)C/C=C1\O[C@H]2C[C@@H](C)CC(=O)[C@H]2[C@@]1(C)O |
